From US6384249B1, “Compounds and methods for stabilization of furfural compositions” (Hercules, Inc., priority 2000, dated 2002)
Several values for one entry are separate records, joined by “and”; a condition that tells them apart may be missing. Equal entries are not always repeated.

Assay: Accelerated air oxidation of furfural, Total Acid Number (TAN) by potentiometric titration
Settings: 25 psig air, 300° F., 2 hours
Experimental: In this example, distilled furfural was treated with prospective stabilizers, over-pressured with 25 psig of air, heated to 300° F., and held at temperature for 2 hours to allow for an accelerated rate of furfural oxidation. Total Acid Number (TAN) titrations were then conducted by potentiometric titration on the treated furfural samples, an untreated (blank), and a sample of the original distilled material (control), which was not heated to 300° F. The acid number, expressed as mg KOH/g, is a measure of the acid generated during air oxidation of furfural. Performance of inhibitors was expressed as a percent inhibition by the following equation: […]

Row | SMILES | % Inhibition @ ppmA (250 ppmA stabilizer) [%] | % Inhibition @ ppmA (500 ppmA stabilizer) | % Inhibition @ ppmA (1000 ppmA stabilizer) | % Inhibition @ ppmA (2000 ppmA stabilizer) [%]
1 | CC(C)CC(C)N=C1C=CC(=Nc2ccccc2)C=C1 (stereo not shown) [Compound #4] | 48 | 76% | 95% | –
2 | CCC(C)CC(C)Nc1ccc(Nc2ccccc2)cc1 (stereo not shown) [Compound #2] | 15 | 37% | 56% | –
3 | CCC(C)Nc1ccc(NC(C)CC)cc1 (stereo not shown) [Compound #1] | 69 | 106% and 114% | 88% and 170% | 57
4 | Cc1cc(C(C)(C)C)c(O)c(C(C)(C)C)c1 [Compound #3, 2,6-di-tert-butyl-4-methylphenol] | −10 | −5% | 12% | –
